According to article PMC7307906, “Macrocyclic Modalities Combining Peptide Epitopes and Natural Product Fragments” (Journal of the American Chemical Society, 2020):
Where “and” joins values, the source holds several entries; their conditions need not be identical. Identical values can stand only once. Like-named read-outs stand apart in the source and are kept apart here.

[1] = the molecule shown is the open-chain precursor, other bond, 34-membered ring, CH(OMe)3/Et3N, then 6/LiBr/Et3N, DMF, THF, resin, 25.0 °C, with chain assembly
[2] = the molecule shown is the open-chain precursor, other bond, 28-membered ring, CH(OMe)3/Et3N, then 6/LiBr/Et3N, DMF, THF, resin, 25.0 °C, with chain assembly
[3] = the molecule shown is the open-chain precursor, other bond, 37-membered ring, CH(OMe)3/Et3N, then 6/LiBr/Et3N, DMF, THF, resin, 25.0 °C, with chain assembly
[4] = the molecule shown is the open-chain precursor, other bond, 31-membered ring, CH(OMe)3/Et3N, then 7/LiBr/Et3N, DMF, THF, resin, 25.0 °C, with chain assembly
[5] = the molecule shown is the open-chain precursor, other bond, 31-membered ring, CH(OMe)3/Et3N, then 6/LiBr/Et3N, DMF, THF, resin, 25.0 °C, with chain assembly
[6] = other bond, Fmoc removal, intramolecular imine, N-methylmaleimide 1,3-dipolar cycloaddition, resin, 4 steps
[7] = other bond, N-methylmaleimide (RP-04; imine cyclization/1,3-dipolar cycloaddition), resin, 4 steps
[8] = other bond, Fmoc removal (RP-03), imine cyclization/1,3-dipolar cycloaddition, N-methylmaleimide (RP-04), resin, 4 steps
[9] = other bond, Fmoc removal (RP-03), imine cyclization/N-methylmaleimide 1,3-dipolar cycloaddition (RP-04), resin, 3 steps
[10] = other bond, 34-membered ring, imine formation, then N-methylmaleimide cycloaddition (RP-04), resin, 4 steps

Substance: H-Gly-MePhe-Ala-His-Ala-Ser-Asn-Lys(4-formylbenzoyl)-Gly-resin?
- ring closure, yield after HPLC [1]: 3%

Substance: H-Gly-MePhe-Arg-Ala-Asn-Lys(4-formylbenzoyl)-Gly-resin?
- ring closure, yield after HPLC [2]: 14%

Substance: H-Gly-MePhe-Arg-Phe-Phe-Asn-Ala-Lys(4-formylbenzoyl)-Tyr-resin?
- ring closure, yield after HPLC [1]: 3%
- ring closure, yield after HPLC (the molecule shown is the open-chain precursor, other bond, 34-membered ring, CH(OMe)3/Et3N, then 7/LiBr/Et3N, DMF, THF, resin, 25.0 °C, with chain assembly): 2%

Substance: H-Gly-MePhe-Arg-Phe-Phe-Asn-Ala-Phe-Lys(4-formylbenzoyl)-Gly-resin?
- ring closure, yield after HPLC [3]: 2%
- ring closure, yield after HPLC (the molecule shown is the open-chain precursor, other bond, 37-membered ring, CH(OMe)3/Et3N, then 7/LiBr/Et3N, DMF, THF, resin, 25.0 °C, with chain assembly): 1%

Substance: H-Gly-MePhe-Arg-Phe-Phe-Asn-Ala-Phe-Lys(4-formylbenzoyl)-Tyr-resin?
- ring closure, yield after HPLC [3]: 2%

Substance: H-Gly-MePhe-Arg-Phe-Phe-Asn-Lys(4-formylbenzoyl)-Gly-resin?
- ring closure, yield after HPLC [4]: 6%

Substance: H-Gly-MePhe-Arg-Phe-Phe-Asn-Lys(4-formylbenzoyl)-Tyr-resin?
- ring closure, yield after HPLC [5]: 3%

Substance: H-Gly-MePhe-Arg-dPhe-dPhe-Asn-Ala-Lys(4-formylbenzoyl)-Gly-resin?
- ring closure, yield after HPLC (the molecule shown is the open-chain precursor, other bond, 34-membered ring, CH(OMe)3/Et3N, then 11/LiBr/Et3N, DMF, THF, resin, 25.0 °C, with chain assembly): 5%

Substance: H-Gly-MePhe-Arg-dPhe-dPhe-Asn-Ala-Lys(4-formylbenzoyl)-Tyr-resin?
- ring closure, yield after HPLC [1]: 2%

Substance: H-Gly-MePhe-Arg-dPhe-dPhe-Asn-Ala-Phe-Lys(4-formylbenzoyl)-Gly-resin?
- ring closure, yield after HPLC [3]: 4%

Substance: H-Gly-MePhe-Arg-dPhe-dPhe-Asn-Ala-Phe-Lys(4-formylbenzoyl)-Tyr-resin?
- ring closure, yield after HPLC [3]: 2%
- ring closure, yield after HPLC (the molecule shown is the open-chain precursor, other bond, 37-membered ring, CH(OMe)3/Et3N, then 11/LiBr/Et3N, DMF, THF, resin, 25.0 °C, with chain assembly): 1%

Substance: H-Gly-MePhe-Arg-dPhe-dPhe-Asn-Lys(4-formylbenzoyl)-Gly-resin?
- ring closure, yield after HPLC [5]: 2%
- ring closure, yield after HPLC [4]: 1%
- ring closure, yield after HPLC (the molecule shown is the open-chain precursor, other bond, 31-membered ring, CH(OMe)3/Et3N, then 8/LiBr/Et3N, DMF, THF, resin, 25.0 °C, with chain assembly): 4%

Substance: H-Gly-MePhe-Arg-dPhe-dPhe-Asn-Lys(4-formylbenzoyl)-Tyr-resin?
- ring closure, yield after HPLC [4]: 3%

Substance: H-Gly-MePhe-Asn-Asn-Asn-Lys(4-formylbenzoyl)-Gly-resin?
- ring closure, yield after HPLC [2]: 12%

Substance: H-Gly-MePhe-Asp-Ile-Asn-Asn-Asn-Lys(4-formylbenzoyl)-Gly-resin
- ring closure, yield after HPLC (the molecule shown is the open-chain precursor, other bond, 34-membered ring, CH(OMe)3/Et3N, then 12/LiBr/Et3N, DMF, THF, resin, 25.0 °C, with chain assembly): 3%

Substance: H-Gly-MePhe-Asp-Ile-Asn-Asn-Asn-Lys(4-formylbenzoyl)-Gly-resin?
- ring closure, yield after HPLC (the molecule shown is the open-chain precursor, other bond, 34-membered ring, imine formation, then 5-benzylidene-1,3-dimethylbarbiturate (14) cycloaddition (RP-04), resin, 4 steps): 11%

Substance: H-Gly-MePhe-Asp-Ile-Asn-Asn-Asn-Val-Lys(4-formylbenzoyl)-Gly-resin?
- ring closure, yield after HPLC [3]: 5%

Substance: H-Gly-MePhe-Glu-Glu-Lys-Asp-Ile-Asn-Asn-Asn-Val-Lys-Lys(4-formylbenzoyl)-Thr-resin?
- ring closure, yield after HPLC (the molecule shown is the open-chain precursor, other bond, 49-membered ring, CH(OMe)3/Et3N, then 6/LiBr/Et3N, DMF, THF, resin, 25.0 °C, with chain assembly): 2%

Substance: H-Gly-MePhe-Gly-Leu-Gly-Phe-Lys(4-formylbenzoyl)-Phe-resin?
- ring closure, yield after HPLC [4]: 5%
- ring closure, yield after HPLC (the molecule shown is the open-chain precursor, other bond, 31-membered ring, CH(OMe)3/Et3N, then 11/LiBr/Et3N, DMF, THF, resin, 25.0 °C, with chain assembly): 4%

Substance: H-Gly-MePhe-Ile-Asn-Asn-Asn-Lys(4-formylbenzoyl)-Gly-resin?
- ring closure, yield after HPLC [5]: 3%

Substance: H-Gly-MePhe-Leu-Lys-Pro-Ile-Lys(4-formylbenzoyl)-Gly-resin?
- ring closure, yield after HPLC [5]: 8%
- ring closure, yield after HPLC [4]: 5%
- ring closure, yield after HPLC (the molecule shown is the open-chain precursor, other bond, 31-membered ring, CH(OMe)3/Et3N, then 13/LiBr/Et3N, DMF, THF, resin, 25.0 °C, with chain assembly): 4%

Substance: H-Gly-Phe-Asp-Ile-Asn-Asn-Asn-Lys(4-formylbenzoyl)-Gly-resin?
- ring closure, yield after HPLC [1]: 2%

Substance: H-Gly-Pro-Asp-Ile-Asn-Asn-Asn-Lys(4-formylbenzoyl)-Gly-resin?
- ring closure, yield after HPLC [1]: 3%

Substance: H-Gly-dMePhe-Asp-Ile-Asn-Asn-Asn-Lys(4-formylbenzoyl)-Gly-resin
- ring closure, yield after HPLC [1]: 5%

Substance: Y[CRFFNAFC]Y
- ring closure, yield after HPLC (disulfide bond, 26-membered ring, DMSO/AcOH, DMSO/AcOH/H2O, 1.56 mM, 25.0 °C, 3 steps): 25%

Substance: Y[CRffNAFC]Y
- ring closure, yield after HPLC (disulfide bond, 26-membered ring, DMSO/AcOH, DMSO/AcOH/H2O, 1.55 mM, 25.0 °C, 3 steps): 17%

Substance: [4-F-Ph-pyrrolidinyl-spirooxindole-NMeFDINNNK]G
- ring closure, yield after HPLC (other bond, Fmoc removal (RP-03), imine cyclization/1,3-dipolar cycloaddition, (E)-4-fluorobenzylidene-indolin-2-one, Cu/BINAP (RP-04), resin, 4 steps): 6%

Substance: [4-OMePh-pyrrolidinyl-spirooxindole-NMeFDINNNK]G
- ring closure, yield after HPLC (other bond, Fmoc removal (RP-03), imine cyclization/1,3-dipolar cycloaddition, (E)-4-methoxybenzylidene-indolin-2-one (RP-04), resin, 4 steps): 3%

Substance: [N-3,4,5-OMePh-fused-di-pyrrolidine-NMeFRffNK]G
- ring closure, yield after HPLC (other bond, Fmoc removal (RP-03), imine cyclization/N-(3,4,5-trimethoxyphenyl)maleimide 1,3-dipolar cycloaddition (RP-04), resin, 3 steps): 2%

Substance: [N-4-OMePh-fused-di-pyrrolidine-NMeFDINNNK]G
- ring closure, yield after HPLC (other bond, Fmoc removal (RP-03), imine cyclization/1,3-dipolar cycloaddition, N-(4-methoxyphenyl)maleimide (RP-04), resin, 4 steps): 20%

Substance: [N-4-OMePh-fused-di-pyrrolidine-NMeFRffNK]G
- ring closure, yield after HPLC (other bond, Fmoc removal (RP-03), imine cyclization/maleimide 8 1,3-dipolar cycloaddition (RP-04), resin, 3 steps): 4%

Substance: [N-Me-fused-di-pyrrolidine-FDINNNK]G
- ring closure, yield after HPLC [6]: 2%

Substance: [N-Me-fused-di-pyrrolidine-NMeFAHASNK]G
- ring closure, yield after HPLC [7]: 3%

Substance: [N-Me-fused-di-pyrrolidine-NMeFALFPGFK]G, A1
- ring closure, yield after HPLC (other bond, 37-membered ring, CH(OMe)3/Et3N, then 6/LiBr/Et3N, DMF, THF, resin, 25.0 °C, 4 steps): 22%

Substance: [N-Me-fused-di-pyrrolidine-NMeFDINNNDab]G
- ring closure, yield after HPLC (other bond, 32-membered ring, imine formation, then N-methylmaleimide cycloaddition (RP-04), resin, with chain assembly): 3%

Substance: [N-Me-fused-di-pyrrolidine-NMeFDINNNDap]G
- ring closure, yield after HPLC (other bond, 31-membered ring, imine formation, then N-methylmaleimide cycloaddition (RP-04), resin, with chain assembly): 4%

Substance: [N-Me-fused-di-pyrrolidine-NMeFDINNNK]G
- ring closure, yield after HPLC [8]: 24%

Substance: [N-Me-fused-di-pyrrolidine-NMeFDINNNOrn]G
- ring closure, yield after HPLC (other bond, 33-membered ring, imine formation, then N-methylmaleimide cycloaddition (RP-04), resin, with chain assembly): 13%

Substance: [N-Me-fused-di-pyrrolidine-NMeFDINNNVK]G
- ring closure, yield after HPLC [6]: 5%

Substance: [N-Me-fused-di-pyrrolidine-NMeFEEKDINNNVKK]T
- ring closure, yield after HPLC [6]: 2%

Substance: [N-Me-fused-di-pyrrolidine-NMeFFLK]G, P1
- ring closure, yield after HPLC (other bond, imine formation, then N-methylmaleimide cycloaddition (RP-04), resin, with chain assembly): 4%

Substance: [N-Me-fused-di-pyrrolidine-NMeFGLGFK]F
- ring closure, yield after HPLC [7]: 5%

Substance: [N-Me-fused-di-pyrrolidine-NMeFINNNK]G
- ring closure, yield after HPLC [6]: 3%

Substance: [N-Me-fused-di-pyrrolidine-NMeFNNNK]G
- ring closure, yield after HPLC [7]: 21%

Substance: [N-Me-fused-di-pyrrolidine-NMeFRANK]G
- ring closure, yield after HPLC [9]: 14%

Substance: [N-Me-fused-di-pyrrolidine-NMeFRFFNAK]Y
- ring closure, yield after HPLC [7]: 3%

Substance: [N-Me-fused-di-pyrrolidine-NMeFRffK]Y, O1
- ring closure, yield after HPLC (other bond, imine formation, then N-methylmaleimide cycloaddition (RP-04), resin, 4 steps): 6% and 7%

Substance: [N-Me-fused-di-pyrrolidine-NMeFRffNAFK]G
- ring closure, yield after HPLC [8]: 4%

Substance: [N-Me-fused-di-pyrrolidine-NMeFRffNAK]Y
- ring closure, yield after HPLC [7]: 2%

Substance: [N-Me-fused-di-pyrrolidine-NMeFRffNK]G
- ring closure, yield after HPLC [9]: 3%

Substance: [N-Me-fused-di-pyrrolidine-NMeGDINNNK]G
- ring closure, yield after HPLC (other bond, 34-membered ring, imine formation, then N-methylmaleimide cycloaddition (RP-04), resin, with chain assembly): 8%

Substance: [N-Me-fused-di-pyrrolidine-NMeLDINNNK]G
- ring closure, yield after HPLC [10]: 3% and 20%

Substance: [N-Me-fused-di-pyrrolidine-NMeVDINNNK]G
- ring closure, yield after HPLC [10]: 27% and 12%

Substance: [N-Me-fused-di-pyrrolidine-NMefDINNNK]G
- ring closure, yield after HPLC [6]: 5%

Substance: [N-Ph-fused-di-pyrrolidine-NMeFALFPGFK]G, A2
- ring closure, yield after HPLC (other bond, 37-membered ring, CH(OMe)3/Et3N, then 7/LiBr/Et3N, DMF, THF, resin, 25.0 °C, with chain assembly): 10%

Substance: [N-Ph-fused-di-pyrrolidine-NMeFDINNNDap]G
- ring closure, yield after HPLC (other bond, Fmoc removal, intramolecular imine, N-phenylmaleimide 1,3-dipolar cycloaddition, resin, 4 steps): 2%

Substance: [N-Ph-fused-di-pyrrolidine-NMeFDINNNK]G
- ring closure, yield after HPLC (other bond, Fmoc removal (RP-03), imine cyclization/1,3-dipolar cycloaddition, N-phenylmaleimide (RP-04), resin, 4 steps): 5%

Substance: [N-Ph-fused-di-pyrrolidine-NMeFRANK]G
- ring closure, yield after HPLC (other bond, Fmoc removal (RP-03), imine cyclization/N-phenylmaleimide 1,3-dipolar cycloaddition (RP-04), resin, 3 steps): 3%
